Measurements as given in ChEMBL document CHEMBL3885881, “DrugMatrix”.

Organism: Rattus norvegicus
Experiment: DrugMatrix - Regimen: Daily Repeat
Type: toxicity, organism-based, Sprague-Dawley
Design: regimen Daily Repeat, gender Male, age 6-8 weeks
Conditions: in vivo, po, route oral GAVAGE, […]; for ABSOLUTE BASOPHIL / ABSOLUTE EOSINOPHIL / ABSOLUTE LYMPHOCYTE / ABSOLUTE MONOCYTE / ABSOLUTE SEGMENTED NEUTROPHIL / BASOPHIL / EOSINOPHIL / ERYTHROCYTE COUNT / HEMATOCRIT / HEMOGLOBIN / LEUKOCYTE COUNT / LYMPHOCYTE / MEAN CORPUSCULAR HEMOGLOBIN / MEAN CORPUSCULAR HEMOGLOBIN CONCENTRATION / MEAN CORPUSCULAR VOLUME / MONOCYTE / NEUTROPHIL / NUCLEATED RED BLOOD CELLS / PLATELET COUNT: tissue Blood; for ALANINE AMINOTRANSFERASE / ALKALINE PHOSPHATASE / ASPARTATE AMINOTRANSFERASE / BLOOD UREA NITROGEN / CARBON DIOXIDE / CHLORIDE / CHOLESTEROL / CREATINE PHOSPHOKINASE / CREATININE / GLUCOSE / LACTATE DEHYDROGENASE / LIPASE / PHOSPHORUS / POTASSIUM / SODIUM / TOTAL BILIRUBIN / TOTAL PROTEIN / URIC ACID: tissue Plasma
[1] = 36 mg/kg, 120 h, dose level Low, time 5 day
[2] = 386 mg/kg, 72 h, dose level High, time 3 day
[3] = 386 mg/kg, 120 h, dose level High, time 5 day

For `c1ccc2c(c1)Nc1ccccc1S2` [PHENOTHIAZINE], the “ABSOLUTE BASOPHIL” value [1] was 0 CELLS/uL, the “ABSOLUTE EOSINOPHIL” value [1] was 85 CELLS/uL and the “ABSOLUTE LYMPHOCYTE” value [1] was 7942.67 CELLS/uL. For the same molecule, the “ABSOLUTE MONOCYTE” value [1] was 54.67 CELLS/uL, the “ABSOLUTE SEGMENTED NEUTROPHIL” value [1] was 984.33 CELLS/uL and the BASOPHIL [1] was 0%. The EOSINOPHIL [1] was 1%, the “ERYTHROCYTE COUNT” value [1] was 5.36 x10E6/uL and the HEMATOCRIT [1] was 33.6%. For the same molecule, the HEMOGLOBIN [1] was 13.03 G/DL, the “LEUKOCYTE COUNT” value [1] was 9.07 x10E3/uL and the LYMPHOCYTE [1] was 87.67%. For the same molecule, the “MEAN CORPUSCULAR HEMOGLOBIN” value [1] was 24.33 pg, the “MEAN CORPUSCULAR HEMOGLOBIN CONCENTRATION” value [1] was 38.8 G/DL and the “MEAN CORPUSCULAR VOLUME” value [1] was 62.63 fL. For the same molecule, the MONOCYTE [1] was 0.67%, the NEUTROPHIL [1] was 10.67% and the “NUCLEATED RED BLOOD CELLS” value [1] was 0 /100WBC. The “PLATELET COUNT” value [1] was 1083 x10E3/uL, the “ALANINE AMINOTRANSFERASE” value [1] was 54.67 u/L and the “ALKALINE PHOSPHATASE” value [1] was 331 u/L. For the same molecule, the “ASPARTATE AMINOTRANSFERASE” value [1] was 95.67 u/L, the “BLOOD UREA NITROGEN” value [1] was 13.33 mg/dL and the “CARBON DIOXIDE” value [1] was 27 mmol/L. The CHLORIDE [1] was 101.67 MEQ/L, the CHOLESTEROL [1] was 59.67 mg/dL and the “CREATINE PHOSPHOKINASE” value [1] was 568.67 u/L. The CREATININE [1] was 0.17 mg/dL, the GLUCOSE [1] was 162.33 mg/dL and the “LACTATE DEHYDROGENASE” value [1] was 99.67 u/L. For the same molecule, the LIPASE [1] was 10.33 u/L, the PHOSPHORUS [1] was 9.13 mg/dL and the POTASSIUM [1] was 5.69 MEQ/L. The SODIUM [1] was 147.3 MEQ/L, the “TOTAL BILIRUBIN” value [1] was 0.2 mg/dL and the “TOTAL PROTEIN” value [1] was 5.73 G/DL. For the same molecule, the “URIC ACID” value [1] was 0.57 mg/dL, the “ABSOLUTE BASOPHIL” value [2] was 0 CELLS/uL and the “ABSOLUTE EOSINOPHIL” value [2] was 0 CELLS/uL. For the same molecule, the “ABSOLUTE LYMPHOCYTE” value [2] was 9449.33 CELLS/uL, the “ABSOLUTE MONOCYTE” value [2] was 225 CELLS/uL and the “ABSOLUTE SEGMENTED NEUTROPHIL” value [2] was 1559 CELLS/uL. The BASOPHIL [2] was 0%, the EOSINOPHIL [2] was 0% and the “ERYTHROCYTE COUNT” value [2] was 6.26 x10E6/uL. The HEMATOCRIT [2] was 38.97%, the HEMOGLOBIN [2] was 14.93 G/DL and the “LEUKOCYTE COUNT” value [2] was 11.23 x10E3/uL. The LYMPHOCYTE [2] was 84.67%, the “MEAN CORPUSCULAR HEMOGLOBIN” value [2] was 23.83 pg and the “MEAN CORPUSCULAR HEMOGLOBIN CONCENTRATION” value [2] was 38.3 G/DL. The “MEAN CORPUSCULAR VOLUME” value [2] was 62.3 fL, the MONOCYTE [2] was 2% and the NEUTROPHIL [2] was 13.33%. The “NUCLEATED RED BLOOD CELLS” value [2] was 0 /100WBC, the “PLATELET COUNT” value [2] was 976.33 x10E3/uL and the “ALANINE AMINOTRANSFERASE” value [2] was 78.33 u/L. The “ALKALINE PHOSPHATASE” value [2] was 354.33 u/L, the “ASPARTATE AMINOTRANSFERASE” value [2] was 109.33 u/L and the “BLOOD UREA NITROGEN” value [2] was 12.67 mg/dL. For the same molecule, the “CARBON DIOXIDE” value [2] was 29.67 mmol/L, the CHLORIDE [2] was 97 MEQ/L and the CHOLESTEROL [2] was 128 mg/dL. For the same molecule, the “CREATINE PHOSPHOKINASE” value [2] was 511 u/L, the CREATININE [2] was 0.21 mg/dL and the GLUCOSE [2] was 125 mg/dL. The “LACTATE DEHYDROGENASE” value [2] was 138.67 u/L, the LIPASE [2] was 40.67 u/L and the PHOSPHORUS [2] was 7.87 mg/dL. For the same molecule, the POTASSIUM [2] was 5.77 MEQ/L, the SODIUM [2] was 142 MEQ/L and the “TOTAL BILIRUBIN” value [2] was 0.7 mg/dL. The “TOTAL PROTEIN” value [2] was 5.53 G/DL, the “URIC ACID” value [2] was 0.6 mg/dL and the “ABSOLUTE BASOPHIL” value [3] was 0 CELLS/uL. The “ABSOLUTE EOSINOPHIL” value [3] was 0 CELLS/uL, the “ABSOLUTE LYMPHOCYTE” value [3] was 8085.67 CELLS/uL and the “ABSOLUTE MONOCYTE” value [3] was 101 CELLS/uL. For the same molecule, the “ABSOLUTE SEGMENTED NEUTROPHIL” value [3] was 1546.67 CELLS/uL, the BASOPHIL [3] was 0% and the EOSINOPHIL [3] was 0%. The “ERYTHROCYTE COUNT” value [3] was 5 x10E6/uL, the HEMATOCRIT [3] was 31.27% and the HEMOGLOBIN [3] was 12.03 G/DL. The “LEUKOCYTE COUNT” value [3] was 9.73 x10E3/uL, the LYMPHOCYTE [3] was 82.67% and the “MEAN CORPUSCULAR HEMOGLOBIN” value [3] was 24.07 pg. For the same molecule, the “MEAN CORPUSCULAR HEMOGLOBIN CONCENTRATION” value [3] was 38.53 G/DL, the “MEAN CORPUSCULAR VOLUME” value [3] was 62.43 fL and the MONOCYTE [3] was 1%. The NEUTROPHIL [3] was 16.33%, the “NUCLEATED RED BLOOD CELLS” value [3] was 0 /100WBC and the “PLATELET COUNT” value [3] was 1551.67 x10E3/uL. For the same molecule, the “ALANINE AMINOTRANSFERASE” value [3] was 64.67 u/L, the “ALKALINE PHOSPHATASE” value [3] was 210.67 u/L and the “ASPARTATE AMINOTRANSFERASE” value [3] was 87.67 u/L. The “BLOOD UREA NITROGEN” value [3] was 15.33 mg/dL, the “CARBON DIOXIDE” value [3] was 27.67 mmol/L and the CHLORIDE [3] was 101 MEQ/L. For the same molecule, the CHOLESTEROL [3] was 108.33 mg/dL, the “CREATINE PHOSPHOKINASE” value [3] was 236 u/L and the CREATININE [3] was 0.23 mg/dL. For the same molecule, the GLUCOSE [3] was 135 mg/dL, the “LACTATE DEHYDROGENASE” value [3] was 68.67 u/L and the LIPASE [3] was 11.33 u/L. It also gave a PHOSPHORUS [3] of 9.1 mg/dL, a POTASSIUM [3] of 5.66 MEQ/L and an SODIUM [3] of 145.9 MEQ/L. For the same molecule, the “TOTAL BILIRUBIN” value [3] was 0.33 mg/dL, the “TOTAL PROTEIN” value [3] was 5.3 G/DL and the “URIC ACID” value [3] was 0.77 mg/dL.
